Assay results: patent publication US20040024543A1, “Methods and systems for analyzing complex biological systems” (priority 2001, published 2004)
Entries after “also recorded” stand apart in the source; their conditions may differ.

How the values were obtained:
Arabidopsis thaliana [1] = assay: MOA1 phenotypic profiling of sprayed Arabidopsis (symptom scores, cluster analysis); format: in vivo; settings: MOA1, in words
Arabidopsis thaliana [2] = assay: SOA1 phenotypic analysis of herbicide-treated Arabidopsis (MIC, Tmic, leaf traits); format: in vivo; settings: for characteristic morphological symptoms: SOA1, in words; for tMic (Dev.): coded score of time to full range of symptoms at MIC
[3] = test system: Saccharomyces cerevisiae wild type strain BY4743; assay: AF1 yeast gene expression analysis (microarray) after antifungal drug treatment; format: cell-based; settings: 2×MIC, two hours
Experimental: Saccharomyces cerevisiae wild type strain BY4743 was purchased from American Type Culture Center (ATCC, Manassas, Va.). The yeast strain was grown in YPD or SD media. […] The cultures started from fresh single colonies were grown in 1.0 ml YPD overnight at 30° C. […] The OD600 was adjusted to 1.0 with YPD media, then 2.0 ml of each was inoculated into three 250 ml flasks, each containing 50 ml of SD media. […] The cells were kept growing for another two hours, then collected by centrifugation at 4000 rpm for 5 minutes at 4° C. Pellets were washed once with ice-cold water, then were lyophilized overnight at 4° C. […] Tubes were vortexed for 30 seconds, then incubated for 10 minutes at room temperature (RT). […] Tubes were incubated for 10 minutes at RT. Samples were centrifuged for 20 minutes as before. Pellets were washed with 400 μl 70% ethanol and centrifuged for 10 minutes as before. The pellet was then dissolved in 100 μl nuclease-free water. RNA quality was determined using the Bioanalyzer 2100 and the RNA 6000 assay (Agilent Technologies, Palo Alto, Calif.) according to manufacturer's instructions. RNA concentrations were determined spectrophotometrically by measuring the absorption at 260 nm in an Ultrospec 2000 (Pharmacia Biotech, Piscataway, N.J.). […] Labeled cRNAs were evaluated using the RNA 6000 assay on the Agilent Bioanalyzer 2100. Labeled cRNA concentrations were determined spectrophotometrically by measuring the absorption at 260 nm in an Ultrospec 2000 (Pharmacia Biotech, Piscataway, N.J.). […] Each pair of samples to be hybridized were independently labeled and hybridized utilizing a fluor reversal for a total of two hybridizations per sample pair. […] Each feature was determined from an array's associated pattern file and a detection algorithm. Intensity values for each feature were determined after subtracting background derived from an average of negative control features. […] Data was evaluated after combining results from fluor reversal replicate hybridizations. […]

Arabidopsis thaliana [4] = assay: MOA1 gene expression profiling (22,000 gene arrays) of sprayed Arabidopsis; settings: for number of gene expression perturbations compared to the other treatments: 1 hr; for No. of Lethal Genes Altered: regulated genes at 1 hr compared with internal list of essential genes
Arabidopsis thaliana [5] = assay: MOA1 biochemical (metabolite) profiling by LC-MS and GC-MS of sprayed Arabidopsis; settings: for stress-related (commonly regulated) metabolites: MOA1, 20 min and 1 hour after spraying
Magnaporthe grisea = format: cell-based
Arabidopsis = settings: nitrate addition to N-starved plants; cited from earlier work
[6] = MOA1, early time points / after one hour
[7] = SOA1, numeric value standardized to mock treated

SMILES: Nc1nc[nH]n1 [Amitrole]
- observed phenotype (Arabidopsis thaliana [1]): chlorosis and not true bleaching
- characteristic morphological symptoms (Arabidopsis thaliana [2]): leaf bleaching and leaf enlargement

SMILES: C[C@@H]1[C@H](O)[C@@H](C)/C=C/C=C/C=C/C=C/C=C/C=C/C=C/[C@H](O[C@@H]2O[C@H](C)[C@@H](O)[C@H](N)[C@@H]2O)C[C@@H]2O[C@](O)(C[C@@H](O)C[C@@H](O)[C@H](O)CC[C@@H](O)C[C@@H](O)CC(=O)O[C@H]1C)C[C@H](O)[C@H]2C(=O)O [Amphoteracin B]
- # Transripts perturbed by treatment ([3]; P < 0.05): 4363
- # Transripts perturbed by treatment ([3]; P < 0.1): 4652

SMILES: COC(=O)NS(=O)(=O)c1ccc(N)cc1 [Asulam]
- number of gene expression perturbations compared to the other treatments (Arabidopsis thaliana [4]): fewest gene expression perturbations
- No. of Lethal Genes Altered (Arabidopsis thaliana [4]): 5

SMILES: CCSC(=O)N(CC(C)C)CC(C)C [Butylate]
- observed phenotype (Arabidopsis thaliana [1]): neither showed a strong herbicidal phenotype
- stress-related (commonly regulated) metabolites (Arabidopsis thaliana [5]): neither butylate nor chlorpropham treatment resulted in many changes in these commonly regulated metabolites

SMILES: CC(C)OC(=O)Nc1cccc(Cl)c1 [Chloropropham]
- observed phenotype (Arabidopsis thaliana [1]): neither showed a strong herbicidal phenotype
- stress-related (commonly regulated) metabolites (Arabidopsis thaliana [5]): neither butylate nor chlorpropham treatment resulted in many changes in these commonly regulated metabolites

SMILES: COc1nc(C)nc(NC(=O)NS(=O)(=O)c2ccccc2Cl)n1 [Chlorsulfuron]
- No. of Lethal Genes Altered (Arabidopsis thaliana [4]): 8
- characteristic morphological symptoms (Arabidopsis thaliana [2]): anthocyanin accumulation in the older leaves accompanied by chlorosis of the newly emerging leaves

SMILES: c1cc[n+]2c(c1)-c1cccc[n+]1CC2 [Diquat]
- characteristic morphological symptoms (Arabidopsis thaliana [2]): rapid and widespread leaf necrosis
- tMic (Dev.) (Arabidopsis thaliana [2]; SOA1): 2

SMILES: CN(C)C(=O)Nc1ccc(Cl)c(Cl)c1 [Diuron]
- characteristic morphological symptoms (Arabidopsis thaliana [2]): rapid and widespread leaf necrosis
- tMic (Dev.) (Arabidopsis thaliana [2]; SOA1): 1

SMILES: CP(=O)(O)CCC(N)C(=O)O (centres unmarked) [Glufosinate]
- nitrogen source utilization of M. grisea (Magnaporthe grisea; in the presence of the compound): only able to utilize glutamine and glutamate as nitrogen sources
- No. of Lethal Genes Altered (Arabidopsis thaliana [4]): 10
- stress-related (commonly regulated) metabolites (Arabidopsis thaliana [5]): Only a few, if any
- characteristic morphological symptoms (Arabidopsis thaliana [2]): Chlorosis and leaf curling
- tMic (Dev.) (Arabidopsis thaliana [2]; SOA1): 1

SMILES: O=C(O)CNCP(=O)(O)O [Glyphosate]
- growth of M. grisea with ammonium or glutamine provided (Magnaporthe grisea): Little growth defect
- growth inhibition and remediation (Magnaporthe grisea; 1.0 mg/ml): remediated by inclusion of aromatic amino acids
- tyrosine level relative to the control (Arabidopsis thaliana [5]; [6]): decreased
- characteristic morphological symptoms (Arabidopsis thaliana [2]): anthocyanin accumulation in the older leaves accompanied by chlorosis of the newly emerging leaves
- tMic (Dev.) (Arabidopsis thaliana [2]; SOA1): 2

SMILES: CC(C)C1(C)N=C(c2ncccc2C(=O)O)NC1=O (centres unmarked) [Imazapyr]
- stress-related (commonly regulated) metabolites (Arabidopsis thaliana [5]): Only a few, if any
- characteristic morphological symptoms (Arabidopsis thaliana [2]): anthocyanin accumulation in the older leaves accompanied by chlorosis of the newly emerging leaves

SMILES: CCc1cnc(C2=NC(C)(C(C)C)C(=O)N2)c(C(=O)O)c1 (centres unmarked) [Imazethapyr]
- characteristic morphological symptoms (Arabidopsis thaliana [2]): anthocyanin accumulation in the older leaves accompanied by chlorosis of the newly emerging leaves

SMILES: CS(=O)(=O)c1cc(C(F)(F)F)ccc1C(=O)c1cnoc1C1CC1 [Isoxaflutole]
- No. of Lethal Genes Altered (Arabidopsis thaliana [4]): 15
- Alpha-tocopherol levels relative to the control (Arabidopsis thaliana [5]; MOA1, early time points): not significantly changed
- phenylalanine level relative to the control (Arabidopsis thaliana [5]; [6]): up-regulated; also recorded: began to accumulate
- tyrosine level relative to the control (Arabidopsis thaliana [5]; [6]): up-regulated; also recorded: began to accumulate

SMILES: CSc1nnc(C(C)(C)C)c(=O)n1N [Metribuzin]
- characteristic morphological symptoms (Arabidopsis thaliana [2]): rapid and widespread leaf necrosis

SMILES: O=C(O)c1ccccc1C(=O)Nc1cccc2ccccc12 [Naptalam]
- number of gene expression perturbations compared to the other treatments (Arabidopsis thaliana [4]): fewest gene expression perturbations
- No. of Lethal Genes Altered (Arabidopsis thaliana [4]): 3

SMILES: O=[N+]([O-])O [Nitrate, nitrate]
- Nitrate Regulation of Glutamate synthetase (Arabidopsis): ↑
- Nitrate Regulation of Glutamine synthetase (2) (Arabidopsis): ↑
- Nitrate Regulation of MADs Box (2) (Arabidopsis): ↓
- Nitrate Regulation of MYB transcription factor (Arabidopsis): ↑
- Nitrate Regulation of Malate Dehydrogenase (Arabidopsis): ↑
- Nitrate Regulation of Nitrate transporter (Arabidopsis): ↑
- Nitrate Regulation of Phosphate transporter (Arabidopsis): ↑
- Nitrate Regulation of Transaldolase (Arabidopsis): ↑
- Nitrate Regulation of Transketolase (Arabidopsis): ↑

SMILES: CNc1cnn(-c2cccc(C(F)(F)F)c2)c(=O)c1Cl [Norflurazon]
- stress-related (commonly regulated) metabolites (Arabidopsis thaliana [5]): Only a few, if any

SMILES: C[n+]1ccc(-c2cc[n+](C)cc2)cc1 [Paraquat]
- characteristic morphological symptoms (Arabidopsis thaliana [2]): rapid and widespread leaf necrosis
- tMic (Dev.) (Arabidopsis thaliana [2]; SOA1): 2
- leafCurling (Dev.) (Arabidopsis thaliana [2]; [7]): 2
- leafTwisting (Dev.) (Arabidopsis thaliana [2]; [7]): 0
- leafWidth (Dev.) (Arabidopsis thaliana [2]; [7]): −1
- matureLeafAnthocyanins (Dev.) (Arabidopsis thaliana [2]; [7]): 0
- matureLeafChlorosis (Dev.) (Arabidopsis thaliana [2]; [7]): 1
- matureLeafNecrosis (Dev.) (Arabidopsis thaliana [2]; [7]): 4
- newLeafAnthocyanins (Dev.) (Arabidopsis thaliana [2]; [7]): 0
- newLeafChlorosis (Dev.) (Arabidopsis thaliana [2]; [7]): 1
- newLeafNecrosis (Dev.) (Arabidopsis thaliana [2]; [7]): 4
- pointedLeaves (Dev.) (Arabidopsis thaliana [2]; [7]): 1

SMILES: CC[C@@H]([C@H](C)O)n1ncn(-c2ccc(N3CCN(c4ccc(OC[C@@H]5CO[C@@](Cn6cncn6)(c6ccc(F)cc6F)C5)cc4)CC3)cc2)c1=O [Posaconazole]
- # Transripts perturbed by treatment ([3]; P < 0.05): 690
